# In US4136196A, “Hypoglycaemically active 2-(phenylalkyl- or -alkenyl hydrazono)-propionic acid derivatives” (Boehringer Mannheim GmbH, priority 1976, dated 1979):
# Where two headings read alike, the source gives them in different places.
# How the values were obtained:
# blood glucose = test: Blood sugar tests: hypoglycaemic activity in fasting guinea pigs, i.p.; type: in vivo, guinea pig; conditions: for minimal effective dose: Cavia porcellus, ip, read-out: Threshold i.p. Dosage for Hypoglycaemic Activity in Testing Guinea Pigs
# Experimental: In order to illustrate the pharmacological properties of the compounds according to the invention, the blood sugarlowering effect and the monoaminoxidase (MAO) inhibition were determined and compared with some corresponding hydrazines. […] Metabolically healthy, cross-bred, fasting guinea pigs were injected with the substances as aqueous solutions of their sodium salts, i.p. A control group receives equivalent amounts of an isotonic NaCl solution. Directly before, as well as in hourly intervals up to the fourth hour after the […], 10 μl blood are taken from an ear border vein and the blood glucose is determined by means of the trouble-free and specific hexokinase technique.
# MAO = test: Measuring of the MAO activity in vitro (kynuramine substrate, unrefined guinea pig liver or brain preparation); type: biochemical; conditions: 360 mμ, read-out: Concentration for 50% MAO Inhibitions
# Experimental: In order to illustrate the pharmacological properties of the compounds according to the invention, the blood sugarlowering effect and the monoaminoxidase (MAO) inhibition were determined and compared with some corresponding hydrazines.
# An unrefined MAO preparation is obtained by comminution of guinea pig liver or brain with the Ultraturrax and subsequent centrifuging at about 10,000 g. The liquid contains the MAO portion dissolved in the cytoplasm and is used for the activity measurements. As substrate there is used kynuramine whose oxidative decomposition by the MAO can be directly observed at 360 m μ in the photometer. The extinction decrease per time unit is a measure of the enzyme activity.
# [1] = in high dosages; literature; cited from earlier work
# [2] = fasting guinea pigs, i.p., aqueous solutions of sodium salts, dosage which significantly lowers blood glucose versus control, up to fourth hour
molecule,measurement,setting,value
3-phenyl-propen-2-yl--hydrazin-hydrochloride [reference compound],Threshold i.p. Dosage for Hypoglycaemic Activity in Testing Guinea Pigs,blood glucose; [2],> 50 mg/kg
CC(=NNCCc1ccccc1C)C(=O)O [2-(2-methylphenethylhydrazono)-propionic acid],minimal effective dose,blood glucose; [2],50 mg/kg
CC(=NNCCc1ccc(Cl)cc1)C(=O)O [2-(4-chlorophenethylhydrazono)-propionic acid],minimal effective dose,blood glucose; [2],25 mg/kg
CC(=NNCCc1ccc(F)cc1)C(=O)O [2-(4-fluorophenethylhydrazono)-propionic acid],minimal effective dose,blood glucose; [2],25 mg/kg
COc1ccc(CCNN=C(C)C(=O)O)cc1 [2-(4-methoxyphenethylhydrazono)-propionic acid],minimal effective dose,blood glucose; [2],50 mg/kg
CC(=NNCCc1ccccc1)C(N)=O [2-(phenethylhydrazono)-propionamide],minimal effective dose,blood glucose; [2],50 mg/kg
"CC(=NNCCc1ccccc1)C(=O)O [2-(phenethylhydrazono)-propionic acid, 2-(Phenethylhydrazono)-propionic acid]",IC50,MAO,600 µM
same,minimal effective dose,blood glucose; [2],15 mg/kg
CC(=NNCCc1ccc(C)cc1)C(=O)O [2-[2-(p-tolyl)-ethylhydrazono]-propionic acid],minimal effective dose,blood glucose; [2],50 mg/kg
CCOC(=O)C(C)=NNCCc1ccccc1 [Ethyl 2-(phenethylhydrazono)-propionate],minimal effective dose,blood glucose; [2],25 mg/kg
COC(=O)C(C)=NNCCc1ccccc1 [Methyl 2-(phenethylhydrazono)-propionate],minimal effective dose,blood glucose; [2],50 mg/kg
"NNCCc1ccccc1 [Phenelzine, 2-phenylethyl-hydrazine, reference compound]",hypoglycaemic activity,[1],can be hypoglycaemically active in high dosages
same,IC50,MAO,0.4 µM
same,minimal effective dose,blood glucose,≥ 50 mg/kg
CC(=NNCCCc1ccccc1)C(=O)[O-].[Na+] [Sodium 2-(3-phenylpropylhydrazono)-propionate],minimal effective dose,blood glucose,35 mg/kg
"CC(=NNCC=Cc1ccccc1)C(=O)[O-].[Na+] [Sodium-2-(cinnamylhydrazono)-propionate, sodium 2-(cinnamylhydrazono)-propionate]",minimal effective dose,blood glucose,15 mg/kg
"CC(NN)c1ccccc1 (centres unmarked) [mebanazine, 1-phenylethyl-hydrazine]",hypoglycaemic activity,[1],can be hypoglycaemically active in high dosages
COc1ccccc1CCNN=C(C)C(=O)[O-].[Na+] [sodium 2-(2-methoxyphenethylhydrazono)-propionate],minimal effective dose,blood glucose,25 mg/kg
CC(=NNCCc1cccc(Br)c1)C(=O)[O-].[Na+] [sodium 2-(3-bromophenethylhydrazono)-propionate],minimal effective dose,blood glucose,25 to 50 mg/kg
sodium 2-(β-methylcinnamylhydrazono)-propionate,Threshold i.p. Dosage for Hypoglycaemic Activity in Testing Guinea Pigs,blood glucose; [2],10 mg/kg
